Data from PubChem BioAssay AID1329 (NMMLSC, 2008).
The source made the active and inactive calls. No rule for the calls is given here.

Molecular target: Induced myeloid leukemia cell differentiation protein Mcl-1 (Homo sapiens) (UniProt Q07820)
Assay: Mcl-1/Bim interaction regulators – biochemical, bead-based flow cytometry, multiplexed, human, dose response (AID 1329)
Conditions: Bim peptide-Mcl-1 binding, MCF

Sequence of Induced myeloid leukemia cell differentiation protein Mcl-1 (Homo sapiens) (Q07820 whole entry, looked up): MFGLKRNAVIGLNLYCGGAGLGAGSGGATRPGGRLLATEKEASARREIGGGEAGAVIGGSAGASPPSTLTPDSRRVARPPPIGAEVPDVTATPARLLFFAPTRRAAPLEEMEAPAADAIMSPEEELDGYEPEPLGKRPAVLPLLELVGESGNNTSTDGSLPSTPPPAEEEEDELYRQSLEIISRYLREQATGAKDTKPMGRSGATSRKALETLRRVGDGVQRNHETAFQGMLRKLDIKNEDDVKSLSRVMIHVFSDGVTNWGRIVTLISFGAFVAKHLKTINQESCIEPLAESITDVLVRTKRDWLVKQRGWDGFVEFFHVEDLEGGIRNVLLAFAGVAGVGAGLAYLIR

Row | Compound | percent span
1 | Nc1ccc(N2CCCCCC2)cc1 | inactive
2 | O=[N+]([O-])c1ccc2[nH]nc(-c3ccccc3)c2c1 | inactive
3 | N/C(Cc1ccc(Cl)c(Cl)c1)=N\OC(=O)c1cccs1 | inactive
4 | O=C(Nc1ccccn1)c1cc2ccccc2o1 | inactive
5 | CC(C)c1ccc(C2CC(c3ccc(Br)cc3)=NN2C(N)=S)cc1 (stereo not drawn) | inactive
6 | Cn1c(N)c(C(=O)COC(=O)c2cncc(Br)c2)c(=O)n(C)c1=O | inactive
7 | Cc1ccc(-c2cc(-c3ccc4c(c3)OCO4)c(C#N)c(N)n2)o1 | inactive
8 | COc1ccc(N2C(=O)C(Cl)=C(Oc3cccc(OC)c3)C2=O)cc1 | inactive
9 | Cc1ccc(-c2cc(-c3ccc(C)o3)nc(N)c2C#N)cc1 | inactive
10 | CC1Cc2ccccc2N1C(=O)CSc1nnnn1-c1ccc2c(c1)OCCO2 (stereo not drawn) | inactive
11 | COc1ccc(C2(NC(C)=O)CCN(C(=O)c3ccco3)CC2)cc1 | inactive
12 | CCOc1ccc(NCc2ccccc2OCc2cccc(F)c2)cc1 | inactive
13 | Cc1ccccc1-n1c(SCc2cccc(F)c2)nc2[nH]ncc2c1=O | inactive
14 | Cc1cccc(-n2c(O)c(/C=N/N3CCOCC3)c(=O)[nH]c2=S)c1 | inactive
15 | Cc1nc(=S)c2ccccc2[nH]1 | inactive
16 | N#C/C(=C(/O)CN1CCN(c2ccccc2F)CC1)c1nc(-c2ccccc2)cs1 | inactive
17 | Cc1ccc(-c2cc(-c3ccc(F)cc3)nc(N)c2C#N)o1 | inactive
18 | O=C(Nc1nccs1)c1ccc(COc2ccc(F)cc2)o1 | inactive
19 | O=C(Cc1ccccc1)OCCNC(=O)c1cccnc1 | inactive
20 | CCOC(=O)c1c(NC(C)=O)sc2c(O)c(Br)cc(Br)c12 | inactive
21 | COP(=O)(CC(=O)O)c1ccccc1 (stereo not drawn) | inactive
22 | Cc1cc(C)c2c(N)c3cccc(C)c3nc2n1 | inactive
23 | Cc1ccc(C(=O)NNC(=O)c2ccc3ncccc3c2)cc1 | inactive
24 | CC(=O)Nc1ccc(-n2cc(-c3ccccc3)[nH]c2=S)cc1 | inactive
25 | O=C(COC(=O)CCCN=C1NS(=O)(=O)c2ccccc21)NC(=O)NC1CCCC1 | inactive
26 | O=C(O)C1=C[C@H](C2CC2)C[C@H](OCCCCO)O1 | inactive
27 | CCOc1c(Cl)cc(CNc2ccc(N3CCCC3)cc2)cc1OC | inactive

Row | Compound | percent span
28 | Cc1ccc(-c2ccc(CCC(=O)O)n2NC(=O)c2cccs2)cc1 | inactive
29 | COc1cc(C2Nc3cccc4cccc(c34)N2)ccc1OC(C)=O | inactive
30 | COc1ccc(NC(=O)c2sccc2SCc2cccc(C(F)(F)F)c2)cc1 | inactive
31 | O=C1c2ccccc2-c2onc3ccc(NCc4ccco4)c1c23 | inactive
32 | Cc1nnc(Sc2cc(NCCO)c([N+](=O)[O-])c3nonc23)s1 | inactive
33 | CCNC(=S)Nc1ccc(OCC)cc1 | inactive
34 | Cc1ccc(OCC(=O)NCc2ccccn2)c(Br)c1 | inactive
35 | Brc1ccc2ncnc(Nc3ccc(N4CCOCC4)cc3)c2c1 | inactive
36 | Cc1ccc(Nc2nc(C)cs2)cc1 | inactive
37 | O=C(N/N=C/c1cccc([N+](=O)[O-])c1)c1cccs1 | inactive
38 | CCOc1cc(/C=C2/N=C(C)C(C(=O)OC)=C2O)ccc1O | inactive
39 | Cc1ccc(C(=O)N/N=C2/NC(=O)CC(C(=O)Nc3ccccc3)S2)cc1 (stereo not drawn) | inactive
40 | CCOC(=O)c1ccc(NC(=O)CSCCC(=O)O)cc1 | inactive
41 | Cc1occc1C(=O)NNC(=S)NCc1ccccc1 | inactive
42 | CCCn1c(N2CCN(C)CC2)nc2c1c(=O)[nH]c(=O)n2C | inactive
43 | NC(=O)c1sc2nc3c(c(-c4ccco4)c2c1N)CCC3 | inactive
44 | Cc1ccc(N=C2NC(=O)/C(=C/C=C/c3ccco3)S2)cc1 | inactive
45 | S=C(NCCc1ccccc1)NCCc1ccccc1 | inactive
46 | Cc1ccc(C)n1-c1ccc(N2CCOCC2)cc1 | inactive
47 | CCNC(=S)Nc1cc(OCC)c(NC(=O)c2cccs2)cc1OCC | inactive
48 | Cc1ccc2c(c1)c(C)c(C)n2CC(O)Cn1nc(C)c(Br)c1C (stereo not drawn) | inactive
49 | Cc1ccc(SCCC(=O)Nc2ccc(Br)c(C)c2)cc1 | inactive
50 | COc1ccc(-n2c(NC(=O)c3ccco3)c(C#N)c3nc4ccccc4nc32)cc1 | inactive
51 | O=C(Nc1cccc(Cl)c1)Nc1ccnc(-c2cccnc2)n1 | inactive
52 | O=C(Nc1ccc(N2CCOCC2)cc1)Nc1ccc2nc(-c3ccco3)c(-c3ccco3)nc2c1 | inactive
53 | COCCn1nnnc1CN(Cc1ccco1)Cc1cc2cc3c(cc2[nH]c1=O)OCO3 | inactive
